This note sets out measurements from ChEMBL document CHEMBL1201862, “PubChem BioAssay data set” (2004).

The structures appear in SMILES notation.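 Five compound concentrations were applied to cells in 96-well plates for 48 hours; endpoints were derived by simple linear interpolation of the resulting dose-response curve. At the GI50, growth is halved.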 Activity calls are given as the source filed them. Cut-off read from the data, not from the text of the source: active = GI50 up to about 1.1 µM and inactive = higher.

Some test systems named below: M14; BT-549; HCC 2998; NCI/ADR-RES; OVCAR-3; KM12; HCT-15; UACC-62; T47D; SNB-75; UO-31; SW-620; OVCAR-4; SK-MEL-2; K562; MDA-N; HL-60; NCI-H522; SF-539; MCF7.
What all share (experiment): NCI tumour cell line growth inhibition, 48 h

`O=C(Cn1c2ccc(Br)cc2c2nc3ccccc3nc21)NCc1ccccc1`: the GI50 in the experiment with M14 is 89.9 µM (inactive); with BT-549, 39.9 µM (inactive); in the experiment on HCC 2998, > 100 µM (inactive); in the experiment on NCI/ADR-RES, > 100 µM (inactive); with OVCAR-3 it was > 100 µM (inactive); in the experiment on KM12 it was > 100 µM (inactive). In addition, the GI50 with HCT-15 was over 100 µM; in the experiment on UACC-62 it was 24.4 µM (inactive); in the experiment with T47D it was 4.1 µM (inactive); in the experiment on SNB-75, 4.45 µM (inactive); with UO-31 it was > 100 µM (inactive); in the experiment on SW-620 it was > 100 µM (inactive). For the same compound, the GI50 in the experiment on OVCAR-4 is 53.1 µM (inactive); in the experiment with SK-MEL-2 it was 25.3 µM (inactive); in the experiment with K562, > 100 µM (inactive); with MDA-N, > 100 µM (inactive).
Turning to `O=C1CC(c2ccc[nH]2)=NN1c1ccccc1`, the GI50 with M14 is > 100 µM (inactive); in the experiment with BT-549, > 100 µM (inactive); in the experiment with NCI/ADR-RES it was > 100 µM (inactive); in the experiment on OVCAR-3, > 100 µM (inactive); with KM12, > 100 µM (inactive); with HCT-15 it was over 100 µM. The GI50 in the experiment with UACC-62, in the experiment on HL-60, with T47D, with SNB-75, with UO-31 and with SW-620 was > 100 µM (inactive) in each case. For the same compound, the GI50 in the experiment on OVCAR-4 was > 100 µM (inactive); in the experiment on NCI-H522 it was > 100 µM (inactive); with SK-MEL-2, > 100 µM (inactive); in the experiment with K562, 73.5 µM (inactive); with SF-539 it was > 100 µM (inactive); with MDA-N, > 100 µM (inactive).
In the case of `NCCCCc1cc(O)c2c(c1O)C(=O)c1ccccc1C2=O`, the GI50 in the experiment with M14 was 16.5 µM (inactive); in the experiment with MCF7 it was 5.41 µM (inactive); with BT-549 it was 22.2 µM (inactive); with HCC 2998, 12.6 µM (inactive); in the experiment on NCI/ADR-RES, 12.6 µM (inactive); in the experiment on OVCAR-3, 6.75 µM (inactive). Also, the GI50 in the experiment on KM12 is 5.41 µM (inactive); in the experiment with HCT-15, 9.25 µM; in the experiment with UACC-62, 17.5 µM (inactive); in the experiment on T47D, 18.1 µM (inactive); in the experiment on UO-31, 6.73 µM (inactive); in the experiment with SW-620, 6.53 µM (inactive). Moreover, the GI50 with OVCAR-4 is 15.4 µM (inactive); in the experiment on NCI-H522, 10 µM (inactive); in the experiment on SK-MEL-2, 17.4 µM (inactive); in the experiment on K562 it was 3.1 µM (inactive); in the experiment on SF-539 it was 6.75 µM (inactive); in the experiment on MDA-N it was 14.9 µM (inactive).
Regarding `COc1cc2c(c(OC)c1OC)-c1cccc(=O)cc1C(NC(C)=O)CC2` (stereo unspecified), the GI50 was 0.0621 µM (active) in the experiment with M14; < 0.01 µM (active) in the experiment on MCF7; 0.437 µM (active) in the experiment on BT-549; 0.075 µM (active) in the experiment with HCC 2998; 0.0463 µM (active) in the experiment with OVCAR-3; 0.0346 µM (active) in the experiment with KM12. The GI50 with HCT-15 is 0.612 µM; in the experiment with UACC-62, 0.0474 µM (active); with HL-60 it was 0.0208 µM (active); in the experiment with T47D it was > 100 µM (inactive); in the experiment on SNB-75, 0.0391 µM (active); with UO-31, 4.93 µM (inactive). The GI50 was 0.0408 µM (active) with SW-620; 32.4 µM (inactive) in the experiment with OVCAR-4; 0.0382 µM (active) in the experiment with NCI-H522; 0.0698 µM (active) with SK-MEL-2; 0.0335 µM (active) in the experiment with K562; 0.042 µM (active) with SF-539. Besides, the GI50 in the experiment on MDA-N was < 0.01 µM (active).
Turning to `Cn1c2c(c3ccccc31)CC(=S)N1CCCC(CC2O)C1` (stereo unspecified), the GI50 in the experiment with MCF7 is > 100 µM (inactive); with BT-549, > 100 µM (inactive); in the experiment on HCC 2998, > 100 µM (inactive); in the experiment on NCI/ADR-RES, > 100 µM (inactive); in the experiment on KM12, > 100 µM (inactive); with HCT-15 it was over 100 µM. Also, the GI50 with UACC-62 was 91.2 µM (inactive); with T47D it was > 100 µM (inactive); with SNB-75 it was > 100 µM (inactive); in the experiment on UO-31 it was 45.8 µM (inactive); with SW-620 it was > 100 µM (inactive); in the experiment with OVCAR-4, > 100 µM (inactive). The GI50 in the experiment with NCI-H522, with SK-MEL-2, with K562, in the experiment with SF-539 and in the experiment on MDA-N was > 100 µM (inactive) throughout.
For the compound `COC(=O)C1C(O)CCC2CN3CCc4c([nH]c5cccc(OC)c45)C3CC21` (stereo unspecified), the GI50 with M14, in the experiment with MCF7, in the experiment with BT-549, in the experiment on HCC 2998, with OVCAR-3 and in the experiment with KM12 was > 100 µM (inactive) each time. For the same compound, the GI50 with HCT-15 was over 100 µM; with UACC-62, > 100 µM (inactive); in the experiment with HL-60, > 100 µM (inactive); in the experiment on T47D, > 100 µM (inactive); in the experiment on SNB-75, > 100 µM (inactive); with UO-31, 76 µM (inactive). In addition, the GI50 in the experiment with SW-620, with OVCAR-4, with NCI-H522, in the experiment with SK-MEL-2, in the experiment on K562 and in the experiment on SF-539 was > 100 µM (inactive) each time. In addition, in the experiment with MDA-N, the GI50 was > 100 µM (inactive).
As to `Cn1c2ccccc2n2c3ncccc3c(=O)cc12`, the GI50 was 64.3 µM (inactive) with M14; 65.8 µM (inactive) in the experiment with BT-549; 50.4 µM (inactive) with NCI/ADR-RES; 50.2 µM (inactive) with OVCAR-3; 71.9 µM (inactive) in the experiment with KM12; 31 µM in the experiment with HCT-15. For the same compound, the GI50 was 55.7 µM (inactive) with T47D; 44.1 µM (inactive) with SNB-75; 26.3 µM (inactive) with UO-31; 50 µM (inactive) in the experiment on SW-620; > 100 µM (inactive) with OVCAR-4; 31.3 µM (inactive) in the experiment on NCI-H522. For the same compound, the figures for the GI50 in the experiment with K562, with SF-539 and in the experiment on MDA-N were 78.3 µM (inactive), 45.9 µM (inactive) and 54.8 µM (inactive), respectively.
Regarding `NC(=O)N/N=C\CC(O)(C(F)(F)Cl)C(F)(F)Cl`, the GI50 in the experiment with M14, in the experiment with MCF7, in the experiment on HCC 2998, in the experiment on NCI/ADR-RES, in the experiment on OVCAR-3 and in the experiment with KM12 was > 10 µM (inactive) each time. In addition, the GI50 is over 10 µM in the experiment on HCT-15; > 10 µM (inactive) with UACC-62; > 10 µM (inactive) with HL-60; > 10 µM (inactive) in the experiment on T47D; > 10 µM (inactive) in the experiment with SNB-75; > 10 µM (inactive) in the experiment with UO-31. Also, the GI50 in the experiment with SW-620, in the experiment with OVCAR-4, in the experiment on NCI-H522, in the experiment on SK-MEL-2, in the experiment with K562 and in the experiment with SF-539 was > 10 µM (inactive) in each case. In the experiment with MDA-N, the GI50 was > 10 µM (inactive).
